Laboratory results as given in BindingDB's records for doi:10.1021/jm070487n (Universita Degli Studi Di Bari, 2007).

The compounds below were run against 5-hydroxytryptamine receptor 2A (Rattus norvegicus, UniProt P14842) (assay: Radioligand Labeled Binding Assay).
Experimental: (§1) IC50 values for each test compound were determined from nonlinear regression analysis of data collected from ligand binding experiments. The inhibition constant (Ki) was calculated from IC50 value by the Cheng and Prusoff equation.

Sequence of 5-hydroxytryptamine receptor 2A (P14842 whole entry): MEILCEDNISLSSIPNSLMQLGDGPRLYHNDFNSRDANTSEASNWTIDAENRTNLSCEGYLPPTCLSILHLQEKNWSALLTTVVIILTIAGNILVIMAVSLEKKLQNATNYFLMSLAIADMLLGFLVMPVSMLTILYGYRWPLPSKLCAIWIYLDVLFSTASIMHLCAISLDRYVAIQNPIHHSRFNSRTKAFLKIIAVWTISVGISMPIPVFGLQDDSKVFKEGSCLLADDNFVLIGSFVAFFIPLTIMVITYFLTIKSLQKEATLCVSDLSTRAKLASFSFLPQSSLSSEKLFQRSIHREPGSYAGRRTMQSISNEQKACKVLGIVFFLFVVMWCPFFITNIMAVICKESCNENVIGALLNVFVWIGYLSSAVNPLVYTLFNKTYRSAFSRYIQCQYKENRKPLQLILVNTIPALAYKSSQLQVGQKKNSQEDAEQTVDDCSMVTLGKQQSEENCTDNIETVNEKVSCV

`COc1ccccc1N1CCN(CCCCCC(=O)NC2CCCc3ccccc32)CC1` (configuration not stated) showed a Ki of 1260 nM.

These compounds were tested against T1, 5-hydroxytryptamine receptor 1A (Homo sapiens, UniProt P08908) (assay: Radioligand Labeled Binding Assay).
T1 sequence (P08908 whole entry): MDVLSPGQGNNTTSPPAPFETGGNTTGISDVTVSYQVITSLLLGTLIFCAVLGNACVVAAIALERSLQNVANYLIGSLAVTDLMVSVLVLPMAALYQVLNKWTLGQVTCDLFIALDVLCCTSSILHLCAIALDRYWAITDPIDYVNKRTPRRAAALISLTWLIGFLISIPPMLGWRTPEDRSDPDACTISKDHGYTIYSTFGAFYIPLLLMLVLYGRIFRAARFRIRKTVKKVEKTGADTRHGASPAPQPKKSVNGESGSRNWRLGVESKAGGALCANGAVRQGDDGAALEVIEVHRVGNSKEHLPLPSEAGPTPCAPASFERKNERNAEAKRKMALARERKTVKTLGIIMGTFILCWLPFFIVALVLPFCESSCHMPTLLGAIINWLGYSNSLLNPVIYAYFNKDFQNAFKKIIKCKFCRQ
Experimental: as §1

First: O=C(CCCCCN1CCN(c2ccccc2O)CC1)NC1CCCc2ccccc21 (configuration not stated)
Second: Cc1ccccc1N1CCN(CCCCCC(=O)NC2CCCc3ccccc32)CC1 (configuration not stated)
The Ki of the first is 12-fold lower: 24 nM for the first, 279 nM for the second.

First: N#Cc1ccccc1N1CCN(CCCCCC(=O)NC2CCCc3ccccc32)CC1 (configuration not stated) [6-[4-(2-cyanophenyl)piperazin-1-yl]-N-(1,2,3,4-tetrahydronaphthalen-1-yl)hexanamide]
Second: O=C(CCCCCN1CCN(c2ccccc2Cl)CC1)NC1CCCc2ccccc21 (configuration not stated)
The Ki of the first is 5.8-fold lower: 16.6 nM for the first, 96 nM for the second.

First: COc1ccccc1N1CCN(CCCCCC(=O)NC2CCCc3ccccc32)CC1 (configuration not stated)
Second: CSc1ccccc1N1CCN(CCCCCC(=O)NC2CCCc3ccccc32)CC1 (configuration not stated)
The Ki of the first is 6.1-fold lower: 8.6 nM for the first, 52.7 nM for the second.

Going from `NC(=O)c1ccccc1N1CCN(CCCCCC(=O)NC2CCCc3ccccc32)CC1` (configuration not stated) [2-{4-[5-(1,2,3,4-tetrahydronaphthalen-1-ylcarbamoyl)pentyl]piperazin-1-yl}benzamide] to `CC(=O)c1ccccc1N1CCN(CCCCCC(=O)NC2CCCc3ccccc32)CC1` (configuration not stated), the Ki falls from 494 nM to 3.85 nM (130-fold). The second binds more tightly here.

`O=C(CCCCCN1CCN(c2ccccc2)CC1)NC1CCCc2ccccc21` (configuration not stated) and `O=C(CCCCCN1CCN(c2ccccc2[N+](=O)[O-])CC1)NC1CCCc2ccccc21` (configuration not stated) [6-[4-(2-nitrophenyl)piperazin-1-yl]-N-(1,2,3,4-tetrahydronaphthalen-1-yl)hexanamide] are within 1.5-fold of each other in Ki: 128 nM for the first, 183 nM for the second.

Work on `CS(=O)(=O)c1ccccc1N1CCN(CCCCCC(=O)NC2CCCc3ccccc32)CC1` (configuration not stated) yielded a Ki of 3120 nM.
